± gives the expanded uncertainty stated by the source.
Details: 101.33 kPa, Liquid, Vibrating tube method

CCCCn1cc[n+](C)c1.F[P-](F)(F)(F)(F)F [1-butyl-3-methylimidazolium hexafluorophosphate]
Details | mass density [kg/m3]
283.15 K | 1380.2 ± 0.7
293.15 K | 1372 ± 0.7
303.15 K | 1362.6 ± 0.7
313.15 K | 1354.1 ± 0.7
323.15 K | 1345.7 ± 0.7
333.15 K | 1339.1 ± 0.7
343.15 K | 1331.7 ± 0.7
353.15 K | 1323.4 ± 0.7
363.15 K | 1314.2 ± 0.6
